In assay [1] the test system is MOLM-13 cell. Briefly: MTS cell viability assay. It counts as cell-based. The conditions noted are these: Homo sapiens, MOLM-13, 72 h, table of representative values. The text has this:
The leukemias cell lines MOLM-13, MV4:11, RSV4:11, MOLT-4, U937, and K562 were purchased from American Type Culture Collection (ATCC, Manassas, Va., USA). The non-leukemias cell lines HCC827, H1975, NCIH460, A431, Huh7, SF268, MCF-7, HCT-116, and normal human fetal fibroblast cell line Detriot 551 were purchased from American Type Culture Collection (ATCC, Manassas, Va., USA). All leukemias cell lines and HCC827, H1975, NCIH460, A431 were maintained in RPMI 1640 medium supplemented with 10% fetal bovine serum (FBS), 10 U/ml penicillin, and 10 µg/ml streptomycin at 37° C. and 5% CO2. The cell lines Huh7, SF268, MCF-7, and Detroit 551 were cultured in DMEM medium supplemented with 10% FBS, 0.01% nonessential amino acids, 10 U/ml penicillin, and 10 µg/ml streptomycin. HCT-116 were cultured in McCoy's 5A medium supplemented with 10% FBS, 0.01% nonessential amino acids, 10 U/ml penicillin, and 10 µg/ml streptomycin. To determine cell viability after drug treatment, assays were performed by seeding 10,000 cells (leukemias cell lines) or 2,500 cells (non-leukemias cell lines) per well in a 96-well culture plate. After 16 h, cells were then treated with vehicle or various concentrations of compound in medium for 72 h. Viable cells were quantitated using the MTS method (Promega, Madison, Wis., USA) according to the manufacturer's recommended protocol. The results were determined by measuring the absorbance at 490 nm using a plate reader (Victor2; PerkinElmer, Shelton, Conn., USA).

Assay [2] deals with T1, VEGFR1 (Homo sapiens, UniProt P17948).
T1 construct: GST-VEGFR1 (residues R781-I1338); GST (N); made in house; host or cells: Sf9 insect cells
T1 sequence (P17948 781-1338): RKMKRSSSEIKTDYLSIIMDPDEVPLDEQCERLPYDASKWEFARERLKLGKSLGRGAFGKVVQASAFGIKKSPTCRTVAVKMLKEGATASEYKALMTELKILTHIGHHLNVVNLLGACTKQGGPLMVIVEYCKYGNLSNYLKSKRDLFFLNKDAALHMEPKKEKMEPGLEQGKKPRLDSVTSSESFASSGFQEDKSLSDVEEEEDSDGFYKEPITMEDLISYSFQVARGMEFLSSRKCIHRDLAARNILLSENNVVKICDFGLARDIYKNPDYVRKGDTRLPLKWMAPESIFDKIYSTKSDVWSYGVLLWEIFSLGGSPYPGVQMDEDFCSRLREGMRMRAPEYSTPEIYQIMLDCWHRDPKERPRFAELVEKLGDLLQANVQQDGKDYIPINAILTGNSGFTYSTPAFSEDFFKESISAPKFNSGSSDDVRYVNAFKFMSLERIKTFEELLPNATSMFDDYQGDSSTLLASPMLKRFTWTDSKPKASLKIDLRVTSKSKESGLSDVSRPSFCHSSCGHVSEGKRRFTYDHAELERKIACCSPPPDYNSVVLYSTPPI
Briefly: VEGFR1 Kinase-Glo kinase assay. It counts as biochemical. The procedure: (§1) The recombinant GST-VEGFR1 (residues R781-I1338) or GST-VEGFR2 (residues V789-V1356) containing kinase domain were expressed in Sf9 insect cells. The kinase assay were carried out in 96-well plates with tested compound in a final volume of 50 μl reaction at 30° C. for 120 minutes with following components: 25 mM HEPES pH 7.4, 10 mM MgCl2, 4 mM MnCl2, 0.5 mM Na3VO4, 2 mM DTT, 0.02% Triton X100, 0.01% BSA, 1 μM ATP, 2 μM polyGlu4:Tyr peptide, 50˜100 ng recombinant VEGFR1 or VEGFR2. Following incubation, 50 μl Kinase-Glo Plus Reagent (Promega, Madison, Wis., USA) was added to each well and the mixture was incubated at 25° C. for 20 min. A 70-μL aliquot of each reaction mixture was transferred to a black microtiter plate and the luminescence was measured on Wallac Vector 1420 multilabel counter (PerkinElmer, Shelton, Conn., USA).
(In Kinase-Glo more light means more ATP remaining.)

For assay [3], the target named is T2, VEGFR2 (Homo sapiens, UniProt P35968).
T2 construct: GST-VEGFR2 (residues V789-V1356); GST (N); made in house; host or cells: Sf9 insect cells
T2 sequence (P35968 789-1356): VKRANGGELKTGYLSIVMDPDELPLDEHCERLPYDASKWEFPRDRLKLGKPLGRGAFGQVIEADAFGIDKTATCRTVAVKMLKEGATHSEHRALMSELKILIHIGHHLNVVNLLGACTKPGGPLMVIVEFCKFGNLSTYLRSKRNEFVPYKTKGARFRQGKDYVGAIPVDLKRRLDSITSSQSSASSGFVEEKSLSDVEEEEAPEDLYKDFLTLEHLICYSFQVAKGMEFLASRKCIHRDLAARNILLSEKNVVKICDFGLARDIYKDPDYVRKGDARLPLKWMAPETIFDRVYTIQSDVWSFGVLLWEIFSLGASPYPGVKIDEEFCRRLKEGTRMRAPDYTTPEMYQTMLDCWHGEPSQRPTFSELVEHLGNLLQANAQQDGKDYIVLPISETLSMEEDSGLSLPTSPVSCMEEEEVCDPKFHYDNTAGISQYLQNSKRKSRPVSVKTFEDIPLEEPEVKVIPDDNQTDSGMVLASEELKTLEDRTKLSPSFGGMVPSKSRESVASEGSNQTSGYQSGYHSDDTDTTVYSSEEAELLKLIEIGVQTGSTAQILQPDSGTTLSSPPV
The assay is described as follows: VEGFR2 Kinase-Glo kinase assay. It counts as biochemical. The procedure: as §1

Assay [4] has as its target T3, wt-FLT3 (Homo sapiens, UniProt P36888).
T3 construct: FLT3 kinase catalytic domain (residues Y567˜S993); made in house; host or cells: Sf9 insect cells (baculovirus, pBac-PAK8-GST-FLT3-KD plasmid)
T3 sequence (P36888 567-993): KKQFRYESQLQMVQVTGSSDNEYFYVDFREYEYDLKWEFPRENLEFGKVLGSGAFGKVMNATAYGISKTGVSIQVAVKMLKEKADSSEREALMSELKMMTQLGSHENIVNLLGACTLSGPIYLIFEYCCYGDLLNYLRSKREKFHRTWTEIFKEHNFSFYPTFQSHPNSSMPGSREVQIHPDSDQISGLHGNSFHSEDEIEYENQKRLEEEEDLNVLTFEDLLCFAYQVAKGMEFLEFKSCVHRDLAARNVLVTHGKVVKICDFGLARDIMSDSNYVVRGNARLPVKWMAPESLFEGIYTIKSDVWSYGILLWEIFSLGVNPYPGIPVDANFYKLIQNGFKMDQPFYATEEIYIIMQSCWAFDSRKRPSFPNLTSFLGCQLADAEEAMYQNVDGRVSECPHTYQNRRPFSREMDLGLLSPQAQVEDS
The assay is described as follows: FLT3 WT Kinase-Glo assay. It counts as biochemical. The procedure: GST-FLT3-KD^WT containing the FLT3 kinase catalytic domain (residues Y567˜S993) were expressed in Sf9 insect cells transfected the baculovirus containing pBac-PAK8-GST-FLT3-KD plasmid. […] Following incubation, 50 μl Kinase-Glo Plus Reagent (Promega, Madison, Wis., USA) was added to each well and the mixture was incubated at 25° C. for 20 min. A 70-μL aliquot of each reaction mixture was transferred to a black microtiter plate and the luminescence was measured on Wallac Vector 1420 multilabel counter (PerkinElmer, Shelton, Conn., USA).

Assay [5] has as its target T4, Aurora A (Homo sapiens, UniProt O14965).
T4 construct: GST-Aurora A (residues S123-S401); GST (N); made in house; host or cells: Sf9 insect cells
T4 sequence (O14965 123-401): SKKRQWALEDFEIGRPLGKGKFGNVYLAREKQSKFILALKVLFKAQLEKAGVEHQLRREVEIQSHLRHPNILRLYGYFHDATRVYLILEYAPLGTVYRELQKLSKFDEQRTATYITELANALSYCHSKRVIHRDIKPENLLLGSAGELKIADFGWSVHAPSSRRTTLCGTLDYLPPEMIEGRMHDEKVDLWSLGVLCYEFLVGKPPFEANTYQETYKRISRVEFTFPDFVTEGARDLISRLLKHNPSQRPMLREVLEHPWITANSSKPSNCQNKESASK
Briefly: Aurora kinase A Kinase-Glo kinase assay. It counts as biochemical. The procedure: The recombinant GST-Aurora A (residues S123-S401) containing kinase domain were expressed in Sf9 insect cells. The kinase assay were carried out in 96-well plates with tested compound in a final volume of 50 μl reaction at 37° C. for 90 minutes with following components: 50 mM Tris-HCl pH 7.4, 10 mM NaCl, 10 mM MgCl2, 0.01% BSA, 5 μM ATP, 1 mM DTT and 15 μM tetra(LRRASLG) peptide, and 150 ng recombinant Aurora A. Following incubation, 50 μl Kinase-Glo Plus Reagent (Promega, Madison, Wis., USA) was added to each well and the mixture was incubated at 25° C. for 20 min. A 70-μL aliquot of each reaction mixture was transferred to a black microtiter plate and the luminescence was measured on Wallac Vector 1420 multilabel counter (PerkinElmer, Shelton, Conn., USA).

The mark [6] stands for this setting: VEGFR1 assay, 1 μM ATP, bound in μM, read-out: IC50.
Where [7] appears, read: table of representative values, read-out: IC50 (nM) VEGFR1.
Where [8] appears, read: VEGFR2 assay, 1 μM ATP, bound in μM, read-out: IC50.
[9] abbreviates: VEGFR2 assay, 1 μM ATP, ranges in nM, read-out: IC50.
Where [10] appears, read: table of representative values, read-out: IC50 (nM) VEGFR2.
Where [11] appears, read: table of representative values, read-out: IC50 (nM) wt-FLT3.
The mark [12] stands for this setting: table of representative values, read-out: IC50 (nM) Aurora A.
The mark [13] stands for this setting: VEGFR1 assay, 1 μM ATP, bound in nM, read-out: IC50.
[14] abbreviates: Aurora A assay, 5 μM ATP, bound in nM, read-out: IC50.
[15] abbreviates: Aurora A assay, 5 μM ATP, bound in μM, read-out: IC50.
Setting [16] is: FLT3 WT Kinase-Glo, 1 μM ATP, read-out: IC50.

Our source for the GI50 and IC50 values is patent publication US9255072B2, “Pyrazole compounds and thiazole compounds as protein kinases inhibitors” (National Health Rsearch Institutes, priority 2011, dated 2016).

SMILES strings stand for the structures. Read-outs that look alike come from different tables or passages of the source. A value given as a limit tells only on which side of the number the result lay.

One may read the GI50 as the concentration at which growth is held to half of that of the control. High values mean lower sensitivity of the cells, low ones greater sensitivity of the cells. For orientation: IC50 means the concentration at which inhibition is half-maximal. In turn, `CN1CCN(Cc2ccc(C(=O)Nc3cc(-c4ccc(CNC(=O)Nc5cc(C6CC6)on5)cc4)n[nH]3)cc2)CC1` [Compound 62d, N1-(3-4-[([(5-cyclopropyl-3-isoxazolyl)amino]carbonylamino)methyl]phenyl-1H-5-pyrazolyl)-4-[(4-methylpiperazino)methyl]benzamide] showed a GI50 in assay [1] of 3 nM. Also, the IC50 is below 1 µM in assay [2] (setting [6]); 0.18 µM in assay [2] (setting [7]); below 1 µM in assay [3] (setting [8]); 0.001 to 0.055 µM in assay [3] (setting [9]); 0.023 µM in assay [3] (setting [10]); 38 nM in assay [4] (setting [11]).
`CCc1cc(NC(=O)NCc2ccc(-c3cc(NC(=O)c4ccc(CN5CCN(C)CC5)cc4)[nH]n3)cc2)no1` [Compound 62b, N1-(3-4-[([(5-ethyl-3-isoxazolyl)amino]carbonylamino)methyl]phenyl-1H-5-pyrazolyl)-4-[(4-methylpiperazino)methyl]benzamide]: the IC50 in assay [5] (setting [12]) was above 1000 nM; in assay [2] (setting [13]) it was below 0.1 µM; in assay [2] (setting [6]), below 1 µM; in assay [2] (setting [7]), 0.029 µM; in assay [3] (setting [8]), below 1 µM; in assay [3] (setting [9]), 0.001 to 0.055 µM. The IC50 is 0.037 µM in assay [3] (setting [10]) and 26 nM in assay [4] (setting [11]). For the same molecule, in assay [1], the GI50 worked out at 2 nM.
For `CN1CCN(Cc2ccc(C(=O)Nc3cc(-c4ccc(NC(=O)Nc5cc(C(C)(C)C)on5)cc4)n[nH]3)cc2)CC1` [Compound 43, N1-(3-4-[([5-(tert-butyl)-3-isoxazolyl]aminocarbonyl)amino]phenyl-1H-5-pyrazolyl)-4-[(4-methylpiperazino)methyl]benzamide], the IC50 in assay [5] (setting [14]) was below 200 nM; in assay [5] (setting [15]), below 1000 nM; in assay [2] (setting [13]) it was below 0.1 µM; in assay [2] (setting [6]), below 1 µM; in assay [3] (setting [8]) it was below 1 µM; in assay [3] (setting [9]), 0.001 to 0.055 µM. In addition, the IC50 in assay [4] (setting [16]) lay within 1 to 20 nM.
`O=C(NCc1ccc(-c2cc(NC(=O)c3ccc(OCCN4CCOCC4)cc3)[nH]n2)cc1)Nc1cc(C2CC2)on1` [Compound 59d, N1-(3-4-[([(5-cyclopropyl-3-isoxazolyl)amino]carbonylamino)methyl]phenyl-1H-5-pyrazolyl)-4-(2-morpholinoethoxy)benzamide]: the GI50 in assay [1] was 6 nM. Besides, the IC50 was below 1 µM in assay [2] (setting [6]); 0.342 µM in assay [2] (setting [7]); below 1 µM in assay [3] (setting [8]); 0.001 to 0.055 µM in assay [3] (setting [9]); 0.045 µM in assay [3] (setting [10]); 21 nM in assay [4] (setting [11]).
On to `Cc1cc(NC(=O)Nc2ccc(-c3cc(NC(=O)c4ccc(N5CCN(C)CC5)cc4)[nH]n3)cc2)no1` [Compound 32, N1-3-[4-([(5-methyl-3-isoxazolyl)amino]carbonylamino)phenyl]-1H-5-pyrazolyl-4-(4-methylpiperazino)benzamide], for which the IC50 in assay [5] (setting [14]) is below 200 nM; in assay [5] (setting [15]), below 1000 nM; in assay [2] (setting [6]) it was below 1 µM; in assay [3] (setting [8]), below 1 µM; in assay [3] (setting [9]) it was 0.001 to 0.055 µM; in assay [4] (setting [16]) it was 1 to 20 nM.
Consider `Cc1cc(-c2cc(NC(=O)c3ccc(OCCN4CCOCC4)cc3)[nH]n2)ccc1NC(=O)Nc1cc(C2CC2)on1` [Compound 46c, N1-3-[4-([(5-cyclopropyl-3-isoxazolyl)amino]carbonylamino)-3-methylphenyl]-1H-5-pyrazolyl-4-(2-morpholinoethoxy)benzamide], for which the IC50 in assay [5] (setting [14]) was below 200 nM; in assay [5] (setting [15]), below 1000 nM; in assay [5] (setting [12]), 41 nM; in assay [2] (setting [13]), below 0.1 µM; in assay [2] (setting [6]) it was below 1 µM; in assay [2] (setting [7]), 0.053 µM. Besides, the IC50 is below 1 µM in assay [3] (setting [8]), 0.001 to 0.055 µM in assay [3] (setting [9]), 0.037 µM in assay [3] (setting [10]) and 38 nM in assay [4] (setting [11]). In assay [1], this molecule came in with a GI50 of 2 nM.
